Measured values taken from US11312719B2, “9-substituted amino triazolo quinazoline derivatives as adenosine receptor antagonists, pharmaceutical compositions and their use” (Merck Sharp & Dohme Corp., priority 2018, dated 2022).

How the values were obtained:
human A2A receptors = human A2A receptors (Homo sapiens (Human), UniProt P29274); assay: A2A antagonism in cAMP cell-based assay (LANCE cAMP, HEK293); conditions: HEK293 cells expressing human A2A receptor
How it was run: (§1)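 HEK293 cells expressing human A2A or A2B, in HBSS/5 mM HEPES/200 nM rolipram, were preincubated with compound (0.5–10,000 nM, 0.25% DMSO) 30 min at 37° C. Adenosine was then added from 300 nM (A2A) or 600 nM (A2B) solution for 30 min.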

human A2B receptors = human A2B receptors (Homo sapiens (Human), UniProt P29275); assay: A2B antagonism in cAMP cell-based assay (LANCE cAMP, HEK293); conditions: HEK293 cells expressing human A2B receptor
human A2B receptors, sequence (P29275 whole entry): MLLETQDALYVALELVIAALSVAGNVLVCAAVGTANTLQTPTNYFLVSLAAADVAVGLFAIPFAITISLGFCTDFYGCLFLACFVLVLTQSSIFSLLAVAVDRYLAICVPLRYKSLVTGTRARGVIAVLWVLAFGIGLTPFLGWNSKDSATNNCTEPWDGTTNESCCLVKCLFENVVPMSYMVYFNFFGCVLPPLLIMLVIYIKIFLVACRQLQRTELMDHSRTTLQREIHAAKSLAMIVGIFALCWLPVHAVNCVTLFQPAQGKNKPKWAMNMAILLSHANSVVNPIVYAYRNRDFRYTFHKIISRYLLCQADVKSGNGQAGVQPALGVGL
How it was run: as §1

human A2A receptors, sequence (P29274 whole entry): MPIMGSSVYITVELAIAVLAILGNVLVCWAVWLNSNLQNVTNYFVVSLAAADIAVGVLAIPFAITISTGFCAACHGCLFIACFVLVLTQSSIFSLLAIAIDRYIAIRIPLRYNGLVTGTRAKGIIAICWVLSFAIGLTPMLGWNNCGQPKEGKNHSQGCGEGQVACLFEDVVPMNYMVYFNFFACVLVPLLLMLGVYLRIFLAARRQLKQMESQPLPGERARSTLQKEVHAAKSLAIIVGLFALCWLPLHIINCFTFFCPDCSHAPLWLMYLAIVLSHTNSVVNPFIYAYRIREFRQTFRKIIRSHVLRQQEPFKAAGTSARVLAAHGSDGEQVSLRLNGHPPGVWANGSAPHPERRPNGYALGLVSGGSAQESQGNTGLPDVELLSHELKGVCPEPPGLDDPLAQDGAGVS

Structure (SMILES)	IC50 (human A2A receptors) [nM]	IC50 (human A2B receptors) [nM]
COc1cc(F)cc2c1nc(N)n1nc(C3CCC(C)N(c4cnn(C(C)(C)C(C)O)c4)C3)nc21 (single isomer, unassigned) [Example 268, (R or S)-3-(4-((2S,5R or 2R,5S)-5-(5-amino-9-fluoro-7-methoxy-[1,2,4]triazolo[1,5-c]quinazolin-2-yl)-2-methylpiperidin-1-yl)-1H-pyrazol-1-yl)-3-methylbutan-2-ol]	0.7	4.7
COc1cc(F)cc2c1nc(N)n1nc(C3CC(C)CN(c4cnn(C(C)(C)CO)c4)C3)nc21 (single isomer, unassigned) [Example 166, 2-(4-((3S,5R or 3R,5S)-3-(5-amino-9-fluoro-7-methoxy-[1,2,4]triazolo[1,5-c]quinazolin-2-yl)-5-methylpiperidin-1-yl)-1H-pyrazol-1-yl)-2-methylpropan-1-ol]	20	2770
CC1CC(c2nc3c4cc(F)cc(F)c4nc(N)n3n2)CN(c2cnn(C(C)(C)CO)c2)C1 (single isomer, unassigned) [Example 180, 2-(4-((3R,5R or 3S,5S)-3-(5-amino-7,9-difluoro-[1,2,4]triazolo[1,5-c]quinazolin-2-yl)-5-methylpiperidin-1-yl)-1H-pyrazol-1-yl)-2-methylpropan-1-ol]	54	5340
COc1cc2nc(N)n3nc(C4CCC(C)N(c5cnn(CC(C)(O)CO)c5)C4)nc3c2cc1F (single isomer, unassigned) [Example 253, (S or R)-2-(4-((2S,5R or 2R,5S)-5-(5-amino-9-fluoro-8-methoxy-[1,2,4]triazolo[1,5-c]quinazolin-2-yl)-2-methylpiperidin-1-yl)-1H-pyrazol-1-yl)-2-methylpropane-1,2-diol]	123	> 10000
COc1cc2nc(N)n3nc([C@H]4CC[C@@H](C)N(c5cnn([C@H](C)[C@@H](C)O)c5)C4)nc3c2cc1F (single isomer, unassigned) [Example 230, (2R,3R or 2S,3S)-3-(4-((2R,5S or 2S,5R)-5-(5-amino-9-fluoro-8-methoxy-[1,2,4]triazolo[1,5-c]quinazolin-2-yl)-2-methylpiperidin-1-yl)-1H-pyrazol-1-yl)butan-2-ol]	32.9	724
COc1cc2nc(N)n3nc([C@@H]4C[C@H](C)CN(c5cn([C@H](C)[C@@H](C)O)nc5C)C4)nc3c2cc1F (single isomer, unassigned) [Example 209, (2R,3R or 2S,3S)-3-(4-((3R,5S or 3S,5R)-3-(5-amino-9-fluoro-8-methoxy-[1,2,4]triazolo[1,5-c]quinazolin-2-yl)-5-methylpiperidin-1-yl)-3-methyl-1H-pyrazol-1-yl)butan-2-ol]	0.7	635
CC(O)C(C)(C)n1cc(N2CCC[C@@H](c3nc4c5cc(F)cc(F)c5nc(N)n4n3)C2)cn1 (single isomer, unassigned) [Example 247, (S or R)-3-(4-((R)-3-(5-amino-7,9-difluoro-[1,2,4]triazolo [1,5-c]quinazolin-2-yl)piperidin-1-yl)-1H-pyrazol-1-yl)-3-methylbutan-2-ol]	4.5	21.8
COc1cc2nc(N)n3nc(C4CC(C)CN(c5cnn(C(C)(C)CO)c5)C4)nc3c2cc1F (racemic) [Example 156, racemic, trans-2-(4-(3-(5-amino-9-fluoro-8-methoxy-[1,2,4]triazolo[1,5-c]quinazolin-2-yl)-5-methylpiperidin-1-yl)-1H-pyrazol-1-yl)-2-methylpropan-1-ol]	9.5	358
COc1cc2nc(N)n3nc([C@@H]4CC[C@H](C)N(c5cnn([C@H](C)[C@@H](C)O)c5)C4)nc3c2cc1F (single isomer, unassigned) [Example 231, (2R,3R or 2S,3S)-3-(4-((2S,5R or 2R,5S)-5-(5-amino-9-fluoro-8-methoxy-[1,2,4]triazolo[1,5-c]quinazolin-2-yl)-2-methylpiperidin-1-yl)-1H-pyrazol-1-yl)butan-2-ol]	122	3840
C[C@@H]1CC[C@H](c2nc3c4cc(F)cc(F)c4nc(N)n3n2)CN1c1cnn(C(C)(CO)CO)c1 (single isomer, unassigned) [Example 249, 2-(4-((2R,5S or 2S,5R)-5-(5-amino-7,9-difluoro-[1,2,4]triazolo[1,5-c]quinazolin-2-yl)-2-methylpiperidin-1-yl)-1H-pyrazol-1-yl)-2-methylpropane-1,3-diol]	26.9	197
CC(O)C(C)n1cc(N2CCC[C@@H](c3nc4c5cc(F)cc(F)c5nc(N)n4n3)C2)cn1 (single isomer, unassigned) [Example 203, (2R,3S or 2S,3R)-3-(4-((R)-3-(5-amino-7,9-difluoro-[1,2,4]triazolo[1,5-c]quinazolin-2-yl)piperidin-1-yl)-1H-pyrazol-1-yl)butan-2-ol]	7.7	53.2
COc1cc2nc(N)n3nc(C4CCC(C)N(c5cnn(CC(C)(O)CO)c5)C4)nc3c2cc1F (single isomer, unassigned) [Example 255]	2.6	28.8

Continued by falling IC50 (human A2A receptors), values first:

IC50 (human A2A receptors) [nM]	IC50 (human A2B receptors) [nM]	Structure (SMILES)
1.9	47.7	CC1CC(c2nc3c4cc(F)cc(F)c4nc(N)n3n2)CN(c2cnn(CC(C)(C)O)c2)C1 (single isomer, unassigned) [Example 164, 1-(4-((3S,5R or 3R,5S)-3-(5-amino-7,9-difluoro-[1,2,4]triazolo[1,5-c]quinazolin-2-yl)-5-methylpiperidin-1-yl)-1H-pyrazol-1-yl)-2-methylpropan-2-ol]
1.9	38.4	COc1cc(F)cc2c1nc(N)n1nc([C@@H]3CCCN(c4cnn(C(C)C(C)O)c4)C3)nc21 (single isomer, unassigned) [Example 201, (2R,3S or 2S,3R)-3-(4-((R)-3-(5-amino-9-fluoro-7-methoxy-[1,2,4]triazolo[1,5-c]quinazolin-2-yl)piperidin-1-yl)-1H-pyrazol-1-yl)butan-2-ol]
1.7	318	COc1cc(F)cc2c1nc(N)n1nc([C@@H]3CCCN(c4cnn(C(C)C(C)O)c4C)C3)nc21 (single isomer, unassigned) [Example 194, (2R,3R or 2S,3S)-3-(4-((R)-3-(5-amino-9-fluoro-7-methoxy-[1,2,4]triazolo[1,5-c]quinazolin-2-yl)piperidin-1-yl)-5-methyl-1H-pyrazol-1-yl)butan-2-ol]
1.5	10	COc1cc2nc(N)n3nc(C4CCC(C)N(c5cnn(CC(C)(O)CO)c5)C4)nc3c2cc1F (single isomer, unassigned) [Example 254]
1.3	251	COc1cc(F)cc2c1nc(N)n1nc([C@@H]3CCCN(c4cnn(C(C)C(C)O)c4C)C3)nc21 (single isomer, unassigned) [Example 193, (2S,3S or 2R,3R)-3-(4-((R)-3-(5-amino-9-fluoro-7-methoxy-[1,2,4]triazolo[1,5-c]quinazolin-2-yl)piperidin-1-yl)-5-methyl-1H-pyrazol-1-yl)butan-2-ol]
1.3	4.5	COc1cc2nc(N)n3nc(C4CCC(C)N(c5cnn(C(C)(C)C(C)O)c5)C4)nc3c2cc1F (single isomer, unassigned) [Example 265, (S or R)-3-(4-((2S,5R or 2R,5S)-5-(5-amino-9-fluoro-8-methoxy-[1,2,4]triazolo[1,5-c]quinazolin-2-yl)-2-methylpiperidin-1-yl)-1H-pyrazol-1-yl)-3-methylbutan-2-ol]
1.2	974	Cc1nn(CC(C)(C)O)cc1N1CCC[C@@H](c2nc3c4cc(F)c(OC(F)F)cc4nc(N)n3n2)C1 [Example 154, (R)-1-(4-(3-(5-amino-8-(difluoromethoxy)-9-fluoro-[1,2,4]triazolo[l,5-c]quinazolin-2-yl)piperidin-l-yl)-3-methyl-1H-pyrazol-1-yl)-2-methylpropan-2-ol]
1.1	49.8	COc1cc(F)cc2c1nc(N)n1nc([C@@H]3CCCN(c4cnn(C(C)C(C)O)c4)C3)nc21 (single isomer, unassigned) [Example 185, (2S,3S or 2R,3R)-3-(4-((R)-3-(5-amino-9-fluoro-7-methoxy-[1,2,4]triazolo[1,5-c]quinazolin-2-yl)piperidin-1-yl)-1H-pyrazol-1-yl)butan-2-ol]
0.8	6.4	COc1cc(F)cc2c1nc(N)n1nc(C3CC(C)CN(c4cnn(C(C)(C)CO)c4)C3)nc21 (single isomer, unassigned) [Example 165, 2-(4-((3R,5S or 3S,5R)-3-(5-amino-9-fluoro-7-methoxy-[1,2,4]triazolo[1,5-c]quinazolin-2-yl)-5-methylpiperidin-1-yl)-1H-pyrazol-1-yl)-2-methylpropan-1-ol]
0.7	46	COc1cc(F)cc2c1nc(N)n1nc(C3CC(C)CN(c4cnn(C(C)C(C)O)c4C)C3)nc21 (single isomer, unassigned) [Example 223, (2S,3S or 2R,3R)-3-(4-((3S,5R or 3R,5S)-3-(5-amino-9-fluoro-7-methoxy-[1,2,4]triazolo[1,5-c]quinazolin-2-yl)-5-methylpiperidin-1-yl)-5-methyl-1H-pyrazol-1-yl)butan-2-ol]
0.5	34.1	Cc1nn(C(C)C(C)O)cc1N1CC(C)CC(c2nc3c4cc(F)cc(F)c4nc(N)n3n2)C1 (single isomer, unassigned) [Example 214, (2R,3R or 2S,3S)-3-(4-((3S,5R or 3R,5S)-3-(5-amino-7,9-difluoro-[1,2,4]triazolo[1,5-c]quinazolin-2-yl)-5-methylpiperidin-1-yl)-3-methyl-1H-pyrazol-1-yl)butan-2-ol]
